Source: ChEMBL document CHEMBL4371069, “Click chemistry for improvement in selectivity of quinazoline-based kinase inhibitors for mutant epidermal growth factor receptors” (Bioorg Med Chem Lett, 2019)

Target: T1, CYP2A6 (Homo sapiens, UniProt P11509)
T1 sequence (P11509 whole entry): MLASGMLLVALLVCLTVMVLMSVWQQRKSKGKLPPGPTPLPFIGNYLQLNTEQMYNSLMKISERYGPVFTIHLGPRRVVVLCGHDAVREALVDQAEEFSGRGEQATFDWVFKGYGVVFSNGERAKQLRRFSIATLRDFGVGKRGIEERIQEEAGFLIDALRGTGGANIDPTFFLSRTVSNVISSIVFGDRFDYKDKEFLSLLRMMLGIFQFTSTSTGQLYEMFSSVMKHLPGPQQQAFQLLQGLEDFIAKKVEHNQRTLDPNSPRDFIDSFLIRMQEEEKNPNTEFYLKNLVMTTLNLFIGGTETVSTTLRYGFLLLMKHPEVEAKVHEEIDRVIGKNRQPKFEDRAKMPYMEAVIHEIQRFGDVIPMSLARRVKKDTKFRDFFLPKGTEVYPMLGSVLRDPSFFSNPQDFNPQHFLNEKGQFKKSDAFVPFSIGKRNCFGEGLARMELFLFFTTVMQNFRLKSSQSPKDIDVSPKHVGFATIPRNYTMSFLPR
Assay: Inhibition of CYP2A6 in human liver microsomes assessed as residual activity at 10 uM using coumarin as substrate preincubated for 5 mins followed by NADPH addition and measured after 15 mins by LC-MS/MS analysis relative to control
Format: ADME
Conditions: probe coumarin, read-out: Activity
With CC(=O)N1CCN(c2ccc(OCC3COC(Cn4ccnc4)(c4ccc(Cl)cc4Cl)O3)cc2)CC1 (configuration not stated) [KETOCONAZOLE] the activity at 0.25 h, 10 µM was 91.8%.

Target: T2, CYP2B6 (Homo sapiens, UniProt P20813)
T2 sequence (P20813 whole entry): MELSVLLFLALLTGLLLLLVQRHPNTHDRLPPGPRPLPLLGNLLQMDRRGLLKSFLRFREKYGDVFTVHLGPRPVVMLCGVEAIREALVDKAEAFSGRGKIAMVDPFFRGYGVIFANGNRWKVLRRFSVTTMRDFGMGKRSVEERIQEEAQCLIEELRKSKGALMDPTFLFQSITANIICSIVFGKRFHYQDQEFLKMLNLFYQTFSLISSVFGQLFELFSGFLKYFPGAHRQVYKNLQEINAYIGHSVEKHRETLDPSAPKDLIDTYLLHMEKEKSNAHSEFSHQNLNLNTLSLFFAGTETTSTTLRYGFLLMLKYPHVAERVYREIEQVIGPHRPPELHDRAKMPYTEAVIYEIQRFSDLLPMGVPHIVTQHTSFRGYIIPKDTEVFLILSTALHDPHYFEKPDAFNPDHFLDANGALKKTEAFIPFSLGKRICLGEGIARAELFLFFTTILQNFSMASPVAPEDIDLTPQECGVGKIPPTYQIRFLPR
Assay: Inhibition of CYP2B6 in human liver microsomes assessed as residual activity at 10 uM using bupropion as substrate preincubated for 5 mins followed by NADPH addition and measured after 15 mins by LC-MS/MS analysis relative to control
Format: ADME
Conditions: probe bupropion, read-out: Activity
CC(=O)N1CCN(c2ccc(OCC3COC(Cn4ccnc4)(c4ccc(Cl)cc4Cl)O3)cc2)CC1 (configuration not stated) [KETOCONAZOLE] showed an activity at 0.25 h, 10 µM of 84.1%.

Target: CYP2E1 (Homo sapiens, UniProt P05181)
Assay: Inhibition of CYP2E1 in human liver microsomes assessed as residual activity at 10 uM using chlorzoxazone as substrate preincubated for 5 mins followed by NADPH addition and measured after 15 mins by LC-MS/MS analysis relative to control
Format: ADME
Conditions: probe chlorzoxazone, read-out: Activity
CC(=O)N1CCN(c2ccc(OCC3COC(Cn4ccnc4)(c4ccc(Cl)cc4Cl)O3)cc2)CC1 (configuration not stated) [KETOCONAZOLE] showed an activity at 0.25 h, 10 µM of 98.1%.

Target: T3, CYP1A2 (Homo sapiens, UniProt P05177)
T3 sequence (P05177 whole entry): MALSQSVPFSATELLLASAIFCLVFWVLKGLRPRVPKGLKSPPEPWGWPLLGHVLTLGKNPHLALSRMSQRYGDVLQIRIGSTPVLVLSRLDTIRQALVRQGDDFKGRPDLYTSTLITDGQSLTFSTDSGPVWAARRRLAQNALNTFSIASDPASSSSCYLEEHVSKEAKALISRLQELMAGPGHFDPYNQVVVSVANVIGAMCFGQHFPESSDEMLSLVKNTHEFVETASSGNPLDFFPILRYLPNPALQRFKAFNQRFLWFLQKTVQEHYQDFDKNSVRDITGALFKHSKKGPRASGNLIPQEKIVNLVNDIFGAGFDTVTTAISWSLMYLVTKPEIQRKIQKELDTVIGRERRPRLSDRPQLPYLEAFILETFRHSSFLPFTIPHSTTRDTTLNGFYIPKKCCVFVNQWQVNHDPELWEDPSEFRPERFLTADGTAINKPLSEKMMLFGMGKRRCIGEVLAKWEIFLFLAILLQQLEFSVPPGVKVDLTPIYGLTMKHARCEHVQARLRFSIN
Assay: Inhibition of CYP1A2 in human liver microsomes assessed as residual activity at 10 uM using phenacetin as substrate preincubated for 5 mins followed by NADPH addition and measured after 15 mins by LC-MS/MS analysis relative to control
Format: ADME
Conditions: probe phenacetin, read-out: Activity
For CC(=O)N1CCN(c2ccc(OCC3COC(Cn4ccnc4)(c4ccc(Cl)cc4Cl)O3)cc2)CC1 (configuration not stated) [KETOCONAZOLE], the activity at 0.25 h, 10 µM was 92.5%.

Test system: A549
Assay: Antiproliferative activity against human A549 cells harboring wild-type EGFR after 72 hrs by EZ-Cytox assay
Format: ADME, cell-based
Conditions: A549, 72 h
C#CCOc1cc2ncnc(Nc3ccc(F)c(Cl)c3)c2cc1NC(=O)C=C showed an IC50 of over 10000 nM. With C=CC(=O)Nc1cc2c(Nc3ccc(F)c(Cl)c3)ncnc2cc1OCc1cn(CCCN2CCOCC2)nn1 the IC50 was 8160 nM. C=CC(=O)Nc1cc2c(Nc3ccc(F)c(Cl)c3)ncnc2cc1OCc1cn(Cc2ccc(C)cc2)nn1 showed an IC50 of 737 nM. In the case of CN(C)C/C=C/C(=O)Nc1cc2c(Nc3ccc(F)c(Cl)c3)ncnc2cc1O[C@H]1CCOC1 [AFATINIB], the IC50 is reported as 3770 nM.

Test system: HepG2
Assay: Cytotoxicity against human HepG2 cells after 24 hrs by LDH release assay
Format: cell-based
Conditions: HepG2, 24 h
COC(=O)C1=C(C)NC(C)=C(C(=O)OC)C1c1ccccc1[N+](=O)[O-] [NIFEDIPINE] showed an IC50 of 9400 nM.

Test system: SK-BR-3
Assay: Antiproliferative activity against HER2-dependant human SKBR3 cells after 72 hrs by EZ-Cytox assay
Format: ADME, cell-based
Conditions: SK-BR-3, 72 h
Molecule C#CCOc1cc2ncnc(Nc3ccc(F)c(Cl)c3)c2cc1NC(=O)C=C has an IC50 of 106 nM. C=CC(=O)Nc1cc2c(Nc3ccc(F)c(Cl)c3)ncnc2cc1OCc1cn(CCCN2CCOCC2)nn1 showed an IC50 of 19 nM. Molecule C=CC(=O)Nc1cc2c(Nc3ccc(F)c(Cl)c3)ncnc2cc1OCc1cn(Cc2ccc(C)cc2)nn1 has an IC50 of 216 nM. CN(C)C/C=C/C(=O)Nc1cc2c(Nc3ccc(F)c(Cl)c3)ncnc2cc1O[C@H]1CCOC1 [AFATINIB] showed an IC50 of 1.2 nM.

Target: T4, CYP2C8 (Homo sapiens, UniProt P10632)
T4 sequence (P10632 whole entry): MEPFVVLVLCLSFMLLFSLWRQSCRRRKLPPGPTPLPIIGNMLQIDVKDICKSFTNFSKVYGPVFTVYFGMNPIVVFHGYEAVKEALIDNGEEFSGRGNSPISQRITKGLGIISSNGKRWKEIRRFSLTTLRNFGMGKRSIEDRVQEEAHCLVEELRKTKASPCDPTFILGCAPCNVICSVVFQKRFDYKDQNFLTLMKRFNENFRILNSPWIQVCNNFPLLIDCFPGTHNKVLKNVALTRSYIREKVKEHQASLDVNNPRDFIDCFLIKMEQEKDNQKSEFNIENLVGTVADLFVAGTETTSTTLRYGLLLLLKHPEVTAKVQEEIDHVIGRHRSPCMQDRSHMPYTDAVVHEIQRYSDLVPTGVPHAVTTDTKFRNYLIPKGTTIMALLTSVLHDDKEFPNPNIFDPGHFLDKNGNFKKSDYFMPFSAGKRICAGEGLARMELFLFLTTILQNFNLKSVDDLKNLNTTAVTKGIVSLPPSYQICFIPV
Assay: Inhibition of CYP2C8 in human liver microsomes assessed as residual activity at 10 uM using amiodiaquine as substrate preincubated for 5 mins followed by NADPH addition and measured after 15 mins by LC-MS/MS analysis relative to control
Format: ADME
Conditions: probe amiodiaquine, read-out: Activity
CC(=O)N1CCN(c2ccc(OCC3COC(Cn4ccnc4)(c4ccc(Cl)cc4Cl)O3)cc2)CC1 (configuration not stated) [KETOCONAZOLE] gave an activity at 0.25 h, 10 µM of 95.6%.

Target: Epidermal growth factor receptor (Homo sapiens, UniProt P00533, L858R/T790M)
Sequence (P00533 25-1210 T790M/L858R limits assumed): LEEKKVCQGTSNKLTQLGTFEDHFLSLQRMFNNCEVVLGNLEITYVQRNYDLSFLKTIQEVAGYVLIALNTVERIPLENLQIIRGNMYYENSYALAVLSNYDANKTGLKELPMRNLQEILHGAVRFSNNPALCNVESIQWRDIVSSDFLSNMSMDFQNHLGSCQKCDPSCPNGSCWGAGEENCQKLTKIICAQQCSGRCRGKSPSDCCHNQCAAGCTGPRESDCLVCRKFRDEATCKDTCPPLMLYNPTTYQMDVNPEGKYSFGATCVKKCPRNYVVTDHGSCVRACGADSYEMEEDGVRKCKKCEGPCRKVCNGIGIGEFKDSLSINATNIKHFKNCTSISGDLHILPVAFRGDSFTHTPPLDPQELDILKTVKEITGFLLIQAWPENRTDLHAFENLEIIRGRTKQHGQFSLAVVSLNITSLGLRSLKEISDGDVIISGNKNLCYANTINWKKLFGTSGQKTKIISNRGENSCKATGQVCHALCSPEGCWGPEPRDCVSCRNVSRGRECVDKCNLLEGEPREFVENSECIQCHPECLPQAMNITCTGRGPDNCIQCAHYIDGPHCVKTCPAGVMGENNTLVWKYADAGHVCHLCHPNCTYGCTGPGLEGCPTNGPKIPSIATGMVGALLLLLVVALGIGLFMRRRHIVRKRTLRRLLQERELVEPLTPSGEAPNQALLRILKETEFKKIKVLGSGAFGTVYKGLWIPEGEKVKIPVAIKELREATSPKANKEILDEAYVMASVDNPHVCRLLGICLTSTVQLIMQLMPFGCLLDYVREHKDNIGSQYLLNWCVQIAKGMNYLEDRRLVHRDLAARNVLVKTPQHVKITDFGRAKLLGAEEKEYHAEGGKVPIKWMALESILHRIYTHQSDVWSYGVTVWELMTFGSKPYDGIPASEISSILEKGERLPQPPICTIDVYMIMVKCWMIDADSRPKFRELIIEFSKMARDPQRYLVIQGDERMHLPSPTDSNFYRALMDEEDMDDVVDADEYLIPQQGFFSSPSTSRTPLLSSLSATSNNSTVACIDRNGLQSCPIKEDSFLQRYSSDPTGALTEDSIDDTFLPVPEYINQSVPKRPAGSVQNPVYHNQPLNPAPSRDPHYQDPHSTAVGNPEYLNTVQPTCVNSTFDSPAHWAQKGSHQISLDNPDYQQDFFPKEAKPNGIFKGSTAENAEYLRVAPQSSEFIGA
Assay: biochemical
Format: cell-based, Sf21
Conditions: not given
Work on C=CC(=O)Nc1cc2c(Nc3ccc(F)c(Cl)c3)ncnc2cc1OCc1cn(CCCN2CCOCC2)nn1 yielded an IC50 of 4 nM. In the case of C=CC(=O)Nc1cc2c(Nc3ccc(F)c(Cl)c3)ncnc2cc1OCc1cn(Cc2ccc(C)cc2)nn1, the IC50 is reported as 15 nM.

Test system: NCI-H1975
Assay: Antiproliferative activity against human NCI-H1975 cells harboring EGFR T790M/L858R double mutant after 72 hrs by EZ-Cytox assay
Format: functional, cell-based
Conditions: NCI-H1975, 72 h
For C#CCOc1cc2ncnc(Nc3ccc(F)c(Cl)c3)c2cc1NC(=O)C=C, the IC50 was 1590 nM. Work on C=CC(=O)Nc1cc2c(Nc3ccc(F)c(Cl)c3)ncnc2cc1OCc1cn(CCCN2CCOCC2)nn1 yielded an IC50 of 341 nM. In the case of C=CC(=O)Nc1cc2c(Nc3ccc(F)c(Cl)c3)ncnc2cc1OCc1cn(Cc2ccc(C)cc2)nn1, the IC50 is reported as 417 nM. For CN(C)C/C=C/C(=O)Nc1cc2c(Nc3ccc(F)c(Cl)c3)ncnc2cc1O[C@H]1CCOC1 [AFATINIB], the IC50 was 131 nM.

Test system: not listed separately
Assay: Safety index, ratio of compound IC50 to afatinib IC50 for antiproliferative activity against HER2-dependant human SKBR3 cells
Format: cell-based
Conditions: SK-BR-3 cells (HER2-dependent), read-out: Ratio IC50
For C=CC(=O)Nc1cc2c(Nc3ccc(F)c(Cl)c3)ncnc2cc1OCc1cn(Cc2ccc(C)cc2)nn1, the selectivity ratio was over 95.

Target: Receptor tyrosine-protein kinase erbB-2 (Homo sapiens, UniProt P04626)
Sequence (P04626 whole entry): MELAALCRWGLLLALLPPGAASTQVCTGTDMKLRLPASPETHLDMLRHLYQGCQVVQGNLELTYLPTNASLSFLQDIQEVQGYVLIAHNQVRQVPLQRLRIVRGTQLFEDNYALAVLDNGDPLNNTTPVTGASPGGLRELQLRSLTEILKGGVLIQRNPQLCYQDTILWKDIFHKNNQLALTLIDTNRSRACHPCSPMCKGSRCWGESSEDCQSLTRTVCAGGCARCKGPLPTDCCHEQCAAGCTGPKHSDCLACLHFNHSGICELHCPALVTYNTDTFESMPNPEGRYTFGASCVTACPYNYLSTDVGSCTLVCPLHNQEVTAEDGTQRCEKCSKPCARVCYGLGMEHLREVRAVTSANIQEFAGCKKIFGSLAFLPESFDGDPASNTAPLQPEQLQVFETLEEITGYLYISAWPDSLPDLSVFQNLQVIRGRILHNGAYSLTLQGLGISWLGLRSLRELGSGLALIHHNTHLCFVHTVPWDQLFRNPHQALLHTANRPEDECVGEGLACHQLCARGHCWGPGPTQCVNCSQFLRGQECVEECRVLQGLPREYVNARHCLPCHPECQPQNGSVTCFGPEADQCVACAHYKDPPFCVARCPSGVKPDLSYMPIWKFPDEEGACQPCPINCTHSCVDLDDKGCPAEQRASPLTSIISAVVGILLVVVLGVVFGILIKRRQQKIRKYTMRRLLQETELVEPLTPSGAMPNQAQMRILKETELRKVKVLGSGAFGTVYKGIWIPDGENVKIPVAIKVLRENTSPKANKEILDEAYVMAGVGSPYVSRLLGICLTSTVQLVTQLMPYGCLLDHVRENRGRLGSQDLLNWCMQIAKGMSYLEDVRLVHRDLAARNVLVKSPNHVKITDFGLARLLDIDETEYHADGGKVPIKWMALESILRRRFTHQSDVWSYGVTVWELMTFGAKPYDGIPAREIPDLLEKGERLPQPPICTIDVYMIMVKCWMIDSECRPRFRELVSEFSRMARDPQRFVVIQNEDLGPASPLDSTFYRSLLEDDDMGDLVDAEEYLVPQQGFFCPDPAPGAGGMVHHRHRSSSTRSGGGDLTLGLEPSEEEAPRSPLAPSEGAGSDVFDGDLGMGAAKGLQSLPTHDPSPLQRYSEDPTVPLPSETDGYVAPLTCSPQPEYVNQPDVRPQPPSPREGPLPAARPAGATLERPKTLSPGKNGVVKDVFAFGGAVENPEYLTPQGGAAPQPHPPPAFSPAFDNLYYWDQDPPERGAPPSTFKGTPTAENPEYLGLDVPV
Assay: Inhibition of human C-terminal His6-tagged ERBB2 (676 to end residues) expressed in baculovirus infected sf21 cells using poly(Glu, Tyr) 4:1 as substrate
Conditions: not given
For C=CC(=O)Nc1cc2c(Nc3ccc(F)c(Cl)c3)ncnc2cc1OCc1cn(CCCN2CCOCC2)nn1, the IC50 was 54 nM. Work on C=CC(=O)Nc1cc2c(Nc3ccc(F)c(Cl)c3)ncnc2cc1OCc1cn(Cc2ccc(C)cc2)nn1 yielded an IC50 of 158 nM.

Target: CYP2C19 (Homo sapiens, UniProt P33261)
Sequence (P33261 whole entry): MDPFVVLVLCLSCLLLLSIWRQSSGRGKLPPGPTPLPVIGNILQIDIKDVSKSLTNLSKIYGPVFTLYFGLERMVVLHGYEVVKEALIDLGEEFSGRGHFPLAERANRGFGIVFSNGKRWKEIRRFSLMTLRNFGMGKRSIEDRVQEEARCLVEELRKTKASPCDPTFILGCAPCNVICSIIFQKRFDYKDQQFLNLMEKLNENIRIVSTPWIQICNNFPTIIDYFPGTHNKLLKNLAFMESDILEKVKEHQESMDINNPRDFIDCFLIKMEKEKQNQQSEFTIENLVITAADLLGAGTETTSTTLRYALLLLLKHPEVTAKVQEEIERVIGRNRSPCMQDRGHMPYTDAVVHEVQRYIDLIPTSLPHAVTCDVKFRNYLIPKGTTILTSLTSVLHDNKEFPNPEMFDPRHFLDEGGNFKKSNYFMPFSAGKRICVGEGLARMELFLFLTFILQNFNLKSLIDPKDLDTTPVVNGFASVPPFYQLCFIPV
Assay: Inhibition of CYP2C19 in human liver microsomes assessed as residual activity at 10 uM using S-mephenytoin as substrate preincubated for 5 mins followed by NADPH addition and measured after 15 mins by LC-MS/MS analysis relative to control
Format: ADME
Conditions: probe S-mephenytoin, read-out: Activity
In the case of CC(=O)N1CCN(c2ccc(OCC3COC(Cn4ccnc4)(c4ccc(Cl)cc4Cl)O3)cc2)CC1 (configuration not stated) [KETOCONAZOLE], the activity at 0.25 h, 10 µM is reported as 85.8%.

Test system: PC-9
Assay: Antiproliferative activity against human PC9 cells harboring EGFR exon-19 del mutant after 72 hrs by EZ-Cytox assay
Format: functional, cell-based
Conditions: PC-9, 72 h
For C#CCOc1cc2ncnc(Nc3ccc(F)c(Cl)c3)c2cc1NC(=O)C=C, the IC50 was 2.9 nM. With C=CC(=O)Nc1cc2c(Nc3ccc(F)c(Cl)c3)ncnc2cc1OCc1cn(CCCN2CCOCC2)nn1 the IC50 was 0.6 nM. In the case of C=CC(=O)Nc1cc2c(Nc3ccc(F)c(Cl)c3)ncnc2cc1OCc1cn(Cc2ccc(C)cc2)nn1, the IC50 is reported as 1.3 nM. Molecule CN(C)C/C=C/C(=O)Nc1cc2c(Nc3ccc(F)c(Cl)c3)ncnc2cc1O[C@H]1CCOC1 [AFATINIB] has an IC50 of 0.1 nM.

Target: CYP2C9 (Homo sapiens, UniProt P11712)
Sequence (P11712 whole entry): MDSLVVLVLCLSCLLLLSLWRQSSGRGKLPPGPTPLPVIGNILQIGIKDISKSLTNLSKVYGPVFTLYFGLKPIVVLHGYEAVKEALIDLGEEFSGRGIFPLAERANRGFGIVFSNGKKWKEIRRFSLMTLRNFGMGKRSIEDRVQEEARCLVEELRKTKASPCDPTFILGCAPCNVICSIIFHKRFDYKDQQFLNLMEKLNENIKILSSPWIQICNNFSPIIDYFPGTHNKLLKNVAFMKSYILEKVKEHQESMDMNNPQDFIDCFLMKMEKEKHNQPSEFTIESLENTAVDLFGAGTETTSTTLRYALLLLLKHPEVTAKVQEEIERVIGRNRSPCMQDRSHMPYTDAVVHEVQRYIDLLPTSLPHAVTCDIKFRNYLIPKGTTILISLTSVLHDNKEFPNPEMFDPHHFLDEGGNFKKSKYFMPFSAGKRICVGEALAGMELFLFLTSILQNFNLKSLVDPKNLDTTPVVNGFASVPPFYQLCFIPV
Assay: Inhibition of CYP2C9 in human liver microsomes assessed as residual activity at 10 uM using tolbutamide as substrate preincubated for 5 mins followed by NADPH addition and measured after 15 mins by LC-MS/MS analysis relative to control
Format: ADME
Conditions: probe tolbutamide, read-out: Activity
Molecule CC(=O)N1CCN(c2ccc(OCC3COC(Cn4ccnc4)(c4ccc(Cl)cc4Cl)O3)cc2)CC1 (configuration not stated) [KETOCONAZOLE] has an activity at 0.25 h, 10 µM of 85%.

Target: CYP3A4 (Homo sapiens, UniProt P08684)
Assay: Inhibition of CYP3A4 in human liver microsomes assessed as residual activity at 10 uM using midazolam as substrate preincubated for 5 mins followed by NADPH addition and measured after 15 mins by LC-MS/MS analysis relative to control
Format: ADME
Conditions: probe midazolam, read-out: Activity
Work on CC(=O)N1CCN(c2ccc(OCC3COC(Cn4ccnc4)(c4ccc(Cl)cc4Cl)O3)cc2)CC1 (configuration not stated) [KETOCONAZOLE] yielded an activity at 0.25 h, 10 µM of 35.7%.

Target: Epidermal growth factor receptor (Homo sapiens, UniProt P00533)
Sequence (P00533 whole entry): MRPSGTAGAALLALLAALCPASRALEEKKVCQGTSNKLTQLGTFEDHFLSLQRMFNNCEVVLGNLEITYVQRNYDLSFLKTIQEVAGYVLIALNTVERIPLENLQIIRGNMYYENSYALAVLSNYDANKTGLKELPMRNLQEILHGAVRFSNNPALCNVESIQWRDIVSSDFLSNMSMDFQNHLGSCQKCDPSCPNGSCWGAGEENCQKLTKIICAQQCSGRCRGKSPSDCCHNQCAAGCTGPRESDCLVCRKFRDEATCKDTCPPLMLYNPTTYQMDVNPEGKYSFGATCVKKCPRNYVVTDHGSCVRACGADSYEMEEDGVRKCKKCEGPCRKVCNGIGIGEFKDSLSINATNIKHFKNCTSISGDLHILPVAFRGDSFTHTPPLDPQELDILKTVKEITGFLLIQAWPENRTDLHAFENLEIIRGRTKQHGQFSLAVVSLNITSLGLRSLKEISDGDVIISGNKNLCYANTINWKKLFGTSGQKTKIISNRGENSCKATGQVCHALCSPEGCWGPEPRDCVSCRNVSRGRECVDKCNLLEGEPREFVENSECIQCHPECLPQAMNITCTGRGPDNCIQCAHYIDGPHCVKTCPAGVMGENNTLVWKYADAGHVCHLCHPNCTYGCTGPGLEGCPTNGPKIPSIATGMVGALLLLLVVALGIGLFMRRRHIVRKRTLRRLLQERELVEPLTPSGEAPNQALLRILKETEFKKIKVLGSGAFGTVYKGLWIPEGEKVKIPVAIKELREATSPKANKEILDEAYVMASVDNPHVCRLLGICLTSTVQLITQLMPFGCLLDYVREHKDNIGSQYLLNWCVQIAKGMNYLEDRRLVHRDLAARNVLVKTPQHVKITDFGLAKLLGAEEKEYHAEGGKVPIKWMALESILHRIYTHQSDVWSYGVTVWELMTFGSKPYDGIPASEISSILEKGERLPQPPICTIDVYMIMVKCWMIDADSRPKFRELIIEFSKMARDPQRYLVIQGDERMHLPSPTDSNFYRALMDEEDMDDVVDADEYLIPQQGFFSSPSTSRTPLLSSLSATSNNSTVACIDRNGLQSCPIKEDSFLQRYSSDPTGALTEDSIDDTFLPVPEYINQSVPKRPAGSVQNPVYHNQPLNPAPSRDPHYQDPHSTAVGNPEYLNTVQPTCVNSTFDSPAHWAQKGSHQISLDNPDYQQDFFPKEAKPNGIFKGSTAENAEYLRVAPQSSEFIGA
Assay: not given
Format: ADME, cell-based, Sf21
Conditions: not given
Molecule C=CC(=O)Nc1cc2c(Nc3ccc(F)c(Cl)c3)ncnc2cc1OCc1cn(CCCN2CCOCC2)nn1 has an IC50 of 12 nM. C=CC(=O)Nc1cc2c(Nc3ccc(F)c(Cl)c3)ncnc2cc1OCc1cn(Cc2ccc(C)cc2)nn1 gave an IC50 of 105 nM.
